# In US5994334A, “Androgen synthesis inhibitors” (priority 1997, dated 1999):
# Entries after “also recorded” stand apart in the source; their conditions may differ. Read-outs that look alike come from different tables or passages of the source.
# Tests used:
# [1] = biological target: T1, Human Testicular C17,20-lyase (Homo sapiens, UniProt P05093); experiment: Inhibition of human testicular C17,20-lyase (pregnenolone substrate, testicular microsomes); assay type: biochemical; details: for inhibition at 0.1 µM: read-out: % Inhibition C17,20-lyase, [I] = 100 nM; for inhibition at 0.4 µM: read-out: % Inhibition C17,20-lyase, [I] = 400 nM
# T1 construct: incubating human testicular microsomes; from tissue; host or cells: human testis, microsomes
# T1 sequence (P05093 1-508): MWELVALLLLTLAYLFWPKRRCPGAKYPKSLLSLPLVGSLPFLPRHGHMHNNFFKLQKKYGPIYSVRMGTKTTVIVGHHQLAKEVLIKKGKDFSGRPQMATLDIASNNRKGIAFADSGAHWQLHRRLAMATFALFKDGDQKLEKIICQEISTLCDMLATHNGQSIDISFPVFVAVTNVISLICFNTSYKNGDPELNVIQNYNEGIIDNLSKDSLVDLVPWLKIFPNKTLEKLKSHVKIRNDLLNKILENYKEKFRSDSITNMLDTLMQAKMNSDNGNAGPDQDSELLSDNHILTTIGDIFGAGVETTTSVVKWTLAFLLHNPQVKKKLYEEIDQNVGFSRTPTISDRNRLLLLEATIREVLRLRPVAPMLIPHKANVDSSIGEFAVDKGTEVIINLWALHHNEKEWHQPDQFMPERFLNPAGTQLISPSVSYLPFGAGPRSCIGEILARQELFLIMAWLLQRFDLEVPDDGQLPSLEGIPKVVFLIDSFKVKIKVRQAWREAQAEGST
# Method: (§1) The conversion of radiolabeled pregnenolone to 17α-hydroxypregnenolone and DHEA by 17α-hydroxylase/C17,20 -lyase was measured by incubating human testicular microsomes with different concentration of test compounds. Reverse phase HPLC was used to separate and accurately quantify the amount of substrate and metabolites. The 17α-hydroxylase and C17,20 -lyase activities were calculated separately. The activity of 17α-hydroxylase was calculated from the conversion of pregnenolone to 17α-hydroxypregnenolone and DHEA and the activity of C17,20 -lyase was based on the conversion of pregnenolone to DHEA. Although 17α-hydroxypregnenolone is the substrate converted to DHEA by C17,20 -lyase, it has been reported that this 17α-hydroxy intermediate is not released from the enzyme binding site during conversion (Nakajin et al., 1981a,b). Also, there are species differences in substrate requirements. Pregnenolone is the natural substrate rather than progesterone for human testicular 17α-hydroxylase and C17,20 -lyase. Therefore, pregnenolone was used as substrate for measuring the activity of this enzyme complex.
# [2] = biological target: T2, human 17α-hydroxylase/C17,20-lyase (Homo sapiens, UniProt P05093); experiment: Inhibition of human testicular 17α-hydroxylase/C17,20-lyase (enzyme complex as a whole); assay type: biochemical
# T2 construct: incubating human testicular microsomes; from tissue; host or cells: human testis, microsomes
# T2 sequence (P05093 1-508): T1 sequence (P05093 1-508)
# Method: as §1
# [3] = biological target: T3, Human Testicular 17α-Hydroxylase (Homo sapiens, UniProt P05093); experiment: Inhibition of human testicular 17α-hydroxylase (pregnenolone substrate, testicular microsomes); assay type: biochemical; details: for inhibition at 0.1 µM: read-out: % Inhibition 17α-hydroxylase, [I] = 100 nM; for inhibition at 0.4 µM: read-out: % Inhibition 17α-hydroxylase, [I] = 400 nM
# T3 construct: incubating human testicular microsomes; from tissue; host or cells: human testis, microsomes
# T3 sequence (P05093 1-508): T1 sequence (P05093 1-508)
# Method: as §1
# [4] = biological target: T4, Human Prostatic 5α-Reductase (Homo sapiens, UniProt P31213); experiment: Inhibition of human prostatic 5α-reductase (prostatic microsomes, [3H]testosterone); details: for IC50: IC50 5α-reductase; for inhibition at 0.1 µM: read-out: % Inhibition of 5α-reductase, [I] 100 nM
# T4 sequence (P31213 1-254): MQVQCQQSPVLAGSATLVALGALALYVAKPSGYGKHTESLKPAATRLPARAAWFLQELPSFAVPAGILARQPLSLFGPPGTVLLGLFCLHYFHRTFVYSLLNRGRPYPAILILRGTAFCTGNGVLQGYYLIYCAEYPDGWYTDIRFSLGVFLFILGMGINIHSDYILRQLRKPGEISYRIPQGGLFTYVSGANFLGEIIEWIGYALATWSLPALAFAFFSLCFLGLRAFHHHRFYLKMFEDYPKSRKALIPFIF
# [5] = tested on: LNCaP human prostatic cancer cell line; experiment: Androgen-dependent growth of LNCaP cells
# Method: The ability of various inhibitors to reverse the stimulatory effect of testosterone on the growth of the LNCaP human prostatic cancer cell line was tested by comparing cell number in wells treated for 9 days with either drug vehicle only (control), 0.1 nM testosterone only, or 0.1 nM testosterone with inhibitor at 0.3, 1, 2.5, or 5 μM.
# [6] = Table 1, NI = no inhibition, CI = complete inhibition, read-out: IC50 C17,20 lyase
# [7] = Table 1, NI = no inhibition, read-out: IC50 17α-OHase
structure (smiles),measurement,setting,value
Cc1nc([C@H]2CC[C@H]3[C@@H]4CC=C5C[C@@H](O)CC[C@]5(C)[C@H]4CC[C@]23C)c[nH]1 [Compound L-4],inhibition at 0.1 µM,[1],70.2%
same,inhibition at 0.4 µM,[1],100%
same,IC50,"[2]; one value for 17α-hydroxylase/lyase, NI = no inhibition, read-out: IC50 17α-hydroxylase/lyase (single entry)",0.4 µM
same,inhibition at 0.1 µM,[3],13.8%
same,inhibition at 0.4 µM,[3],41.9%
C[C@]12CC[C@H]3[C@@H](CC=C4C[C@@H](O)CC[C@@]43C)[C@@H]1CC[C@@H]2c1ncc[nH]1 [Compound L-1],inhibition at 0.1 µM,"[1]; 100 nM, second figure of pair",73.9%
same,inhibition at 0.4 µM,"[1]; 400 nM, second figure of pair",100%
same,"inhibition of 17α-hydroxylase/C17,20-lyase (in words)",[2]; NI = no inhibition,"poor inhibition of 17α-hydroxylase/C17,20 -lyase"
same,inhibition at 0.1 µM,"[3]; 100 nM, first figure of pair",22.8%
same,inhibition at 0.4 µM,"[3]; 400 nM, first figure of pair",23.7%
Cc1nc([C@H]2CC[C@H]3[C@@H]4CC=C5C[C@@H](O)CC[C@]5(C)[C@H]4CC[C@]23C)co1 [Compound L-5],inhibition at 0.1 µM,"[1]; 100 nM, second figure of pair",71.2%
same,inhibition at 0.4 µM,"[1]; 400 nM, second figure of pair",81.7%
same,"inhibition of 17α-hydroxylase/C17,20-lyase (in words)",[2]; NI = no inhibition,less inhibition
same,inhibition at 0.1 µM,"[3]; 100 nM, first figure of pair",22.4%
same,inhibition at 0.4 µM,"[3]; 400 nM, first figure of pair",26.5%
CC(=O)[C@@]1(Br)CC[C@H]2[C@@H]3CC=C4C[C@@H](O)CC[C@]4(C)[C@H]3CC[C@@]21C [Compound I-11],IC50,[1]; [6],0.97 µM
same,"inhibition of 17α-hydroxylase/C17,20-lyase (in words)",[2]; NI = no inhibition,poor inhibition
same,IC50,[3]; [7],1.3 µM
C[C@H](N)[C@H]1CC[C@H]2[C@@H]3CC=C4C[C@@H](O)CC[C@]4(C)[C@H]3CC[C@]12C [Compound I-10],IC50,[1]; [6],8 µM
same,"inhibition of 17α-hydroxylase/C17,20-lyase (in words)",[2]; NI = no inhibition,poor inhibition
same,IC50,[3]; [7],9.8 µM
"C[C@@H](O)C1=CC[C@H]2[C@@H]3CCC4=CC(=O)CC[C@]4(C)[C@H]3CC[C@]12C [Compound L-10, 20β-hydroxy-pregna-4,16-dien-3-one]",IC50,[4],0.02 µM
same,IC50,[4]; Table 2,0.021 µM
same,IC50,"[4]; Table 3, NI = no inhibition",0.021 µM
same,inhibition of 5α-reductase (in words),[4]; NI = no inhibition,almost equipotent with finasteride
same,inhibition at 0.01 µM,"[4]; read-out: % Inhibition of 5α-reductase, [I] 10 nM",97%
same,inhibition at 0.1 µM,[4],90.7%
same,inhibition at 0.1 µM,[1],2.28%
same,inhibition at 0.4 µM,[1],8.48%
same,inhibition at 0.1 µM,[3],14.9%
same,inhibition at 0.4 µM,[3],8.19%
same,reversal of DHT-stimulated LNCaP growth (in words),[5]; 0.03 nM DHT,not dose-dependent
same,reversal of testosterone-stimulated LNCaP growth (in words),"[5]; 0.1 nM testosterone, inhibitor 0.3-5 μM, 9 days",dose-dependent reversal
C[C@H](c1c[nH]cn1)[C@H]1CC[C@H]2[C@@H]3CCC4=CC(=O)CC[C@]4(C)[C@H]3CC[C@]12C [Compound I-45],IC50,[1]; [6],> 30 µM
same,"inhibition of 17α-hydroxylase/C17,20-lyase (in words)",[2]; NI = no inhibition,did not show any activity
same,IC50,[3]; [7],> 30 µM
"CC(=NO)C1=CC[C@H]2[C@@H]3CCC4=CC(=O)CC[C@]4(C)[C@H]3CC[C@]12C [Compound L-2, 16-dehydroprogesterone-20-oxime]",IC50,[4],0.0525 µM
same,IC50,[4]; Table 2,0.052 µM
same,IC50,"[4]; Table 3, NI = no inhibition",0.0525 µM
same,inhibition of 5α-reductase (in words),[4]; NI = no inhibition,potent inhibition of 5α-reductase; also recorded: potent inhibitor of human 5α-reductase
same,inhibition at 0.1 µM,[4],45.5%
same,times less potent than finasteride (5α-reductase),[4]; vs finasteride,4-6 times
same,IC50,"[1]; second figure of pair, read-out: IC50 C17,20-lyase",0.005 µM
same,"inhibition of 17α-hydroxylase/C17,20-lyase (in words)",[2]; NI = no inhibition,potent inhibitors of both enzymes
same,"stronger activity than I-5 against 17α-hydroxylase/C17,20-lyase",[2]; vs I-5,twofold stronger activity
same,times more potent than ketoconazole,[2]; vs ketoconazole,10-50 times
same,IC50,[3]; [7],0.0087 µM
same,IC50,"[3]; Table 3, first figure of 17α-hydroxylase/lyase pair, read-out: IC50 17α-hydroxylase",0.00865 µM
same,IC50,"[3]; first figure of pair, read-out: IC50 17α-hydroxylase",0.006 µM
